Patent US5194379A, “Microbial transformation process for the preparation of hydroxylanol imidazo (4,5-b) pyridines useful as angiotensin II receptor antagonists” (Merck & Co., Inc., priority 1991, dated 1993)

Target: T1, Angiotensin II (A II) receptor (Oryctolagus cuniculus, UniProt P34976)
T1 sequence (P34976 1-359): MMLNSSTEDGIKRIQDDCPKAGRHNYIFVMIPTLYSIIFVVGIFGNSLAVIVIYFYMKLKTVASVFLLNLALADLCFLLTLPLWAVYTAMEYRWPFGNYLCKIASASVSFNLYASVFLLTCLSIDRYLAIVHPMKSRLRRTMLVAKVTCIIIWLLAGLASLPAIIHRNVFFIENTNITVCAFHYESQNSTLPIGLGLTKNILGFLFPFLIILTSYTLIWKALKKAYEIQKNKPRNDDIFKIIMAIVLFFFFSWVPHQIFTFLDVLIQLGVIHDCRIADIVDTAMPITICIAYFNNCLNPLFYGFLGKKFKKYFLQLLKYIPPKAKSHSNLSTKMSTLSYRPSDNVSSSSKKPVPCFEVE
Assay: Receptor Binding Assay Using Rabbit Aortae Membrane Preparation (displacement of 125I-Sar1Ile8-angiotensin II)
Experimental: This assay is also referred to herein as the "IC50 " assay.
Receptor Binding Assay Using Rabbit Aortae Membrane Preparation
Three frozen rabbit aortae (obtained from Pel-Freeze Biologicals) were suspended in 5 mM Tris-0.25M Sucrose, pH 7.4 buffer (50 ml) homogenized, and then centifuged. The mixture was filtered through a cheesecloth and the supernatant was centrifuged for 30 minutes at 20,000 rpm at 4° C. The pellet thus obtained was resuspended in 30 ml of 50 mM Tris-5 mM MgCl2 buffer containing 0.2% Bovine Serum Albumin and 0.2 mg/ml Bacitration and the suspension was used for 100 assay tubes. Samples tested for screening were done in duplicate. To the membrane preparation (0.25 ml) there was added ^125 I-Sar^1 Ile^8 -angiotensin II [obtained from New England Nuclear] (10 ul; 20,000 cpm) with or without the test sample and the mixture was incubated at 37° C. for 90 minutes. The mixture was then diluted with ice-cold 50 mM Tris---0.9% NaCl, pH 7.4 (4 ml) and filtered through a glass fiber filter (GF/B Whatman 2.4" diameter). The filter was soaked in scintillation cocktail (10 ml) and counted for radioactivity using Packard 2260 Tricarb liquid scintillation counter. […]

A II antagonist activity by the IC50 assay (in words) | SMILES
exhibit A II antagonist activity | CCc1nc2c(C)cc(CO)nc2n1Cc1ccc(-c2ccccc2-c2nnn[nH]2)cc1 [compound (I)]
exhibit A II antagonist activity | CCc1nc2c(CO)cc(C)nc2n1Cc1ccc(-c2ccccc2-c2nnn[nH]2)cc1 [compound (II)]
